Consider 18 compounds from US4792550A, “13-aza-14-oxo-TXA2 analogues” (Ono Pharmaceutical Co., Ltd., priority 1984, dated 1988).

In test [1] the test system is contraction of artery induced by STA2. Description: Inhibitory activity on contraction of artery (increase of blood pressure) induced by STA2 in guinea pig. The settings on record: male guinea pig, 100 μg/kg i.v., blood pressure at carotid artery; for inhibition in vivo at 0.1 mg/kg: Cavia porcellus, iv, read-out: Inhibitory ratios on contraction of artery. The test is classed as in vivo. The procedure:
(ii) inhibitory percentages on contraction of artery induced by STA2 in guinea pigs.
(ii) Inhibitory activity of increasing of blood pressure
A glycine-sodium hydroxide buffer solution (pH 10) of tested compound was administered intravenously to a urethaneanaesthetized male guinea pig weighing 200-350 g, at a rate of 100 μg/kg animal body weight via carotid vein.
And a solution of STA2 in phosphate buffer (pH 7.4) was administered intravenously. Change of the blood pressure was measured at carotid artery and then inhibition ratio (%) was calculated.

In test [2] the test system is platelet aggregation induced by STA2 in human blood. Description: Inhibitory activity of platelet aggregation induced by STA2 in human blood. The settings on record: method of Born, read-out: concentrations required 50% inhibition on platelet aggregation (IC50). The class given is cell-based. The procedure: (i) concentrations required 50% inhibition (IC50) on platelet aggregation using human blood induced by STA2 (9,11-epithio-15-hydroxy-11a-carbathromb-5Z,13E-dienoic acid), and
(i) Inhibitory activitv of platelet aggregation induced by STA2 in human blood
Whole blood of healthy human adult was collected with citric acid, and the mixture (20 ml) was centrifuged (180×g) for 10 min. The surpernatant obtained was diluted with sufficient platelet poor plasma to obtain plasma which contains 300,000 platelet cells per μl.
A solution of tested compound in ethanol (1 μl) was added to the obtained plasma (250 μl), and then a solution of STA2 in ethanol was added to the mixture. The measurement was carried out followed by the method of Born and then IC50 was calculated.

SMILES strings stand for the structures. Read-outs that look alike come from different tables or passages of the source.

As to `CC1(C)[C@H]2C[C@H](NC(=O)CCSc3ccccc3)[C@@H](C/C=C\CCCC(=O)O)[C@@H]1C2` [1(aa)], in test [1], the inhibition in vivo at 0.1 mg/kg stood at 66.4%. Also, in test [2] (Homo sapiens, Platelet), the IC50 amounted to 290 nM.

In the case of `CCC(C)CC(=O)N[C@H]1C[C@H]2C[C@@H]([C@@H]1C/C=C\CCCC(=O)O)C2(C)C` (some centres unmarked) [1(dd)], the inhibition in vivo at 0.1 mg/kg in test [1] came to 37.1%. Further, the IC50 in test [2] (Homo sapiens, Platelet) is 550 nM.

In the case of `CC1(C)[C@H]2C[C@H](NC(=O)C(O)CCc3ccccc3)[C@@H](C/C=C\CCCC(=O)O)[C@@H]1C2` (some centres unmarked) [1(b)], the inhibition in vivo at 0.1 mg/kg in test [1] was 75.2%. The IC50 in test [2] (Homo sapiens, Platelet) stood at 280 nM.

Take `CCCCCC(O)C(=O)N[C@H]1C[C@H]2C[C@@H]([C@@H]1C/C=C\CCCC(=O)O)C2(C)C` (some centres unmarked) [1(c)]: the inhibition in vivo at 0.1 mg/kg in test [1] was found to be 71.2%. In addition, the IC50 in test [2] (Homo sapiens, Platelet) came to 320 nM.

Turning to `CC1(C)[C@H]2C[C@H](NC(=O)CC3Cc4ccccc4C3)[C@@H](C/C=C\CCCC(=O)O)[C@@H]1C2` [1(cc)], in test [2] (Homo sapiens, Platelet), the IC50 was 710 nM.

`CCCCCC(=O)N[C@H]1C[C@H]2C[C@@H]([C@@H]1C/C=C\CCCC(=O)O)C2(C)C` [Example 6, 9α,11α-dimethylmethano-13-aza-14-oxo-20-nor-11a-carbathromb-5Z-enoic acid]: the inhibition in vivo at 0.1 mg/kg in test [1] amounted to 78.1%. For the same compound, the IC50 in test [2] (Homo sapiens, Platelet) was 670 nM.

As for `CC(C)C(O)C(=O)N[C@H]1C[C@H]2C[C@@H]([C@@H]1C/C=C\CCCC(=O)O)C2(C)C` (single isomer, unassigned) [1(jj)], in test [1], the “Inhibitory ratios on contraction of artery” value was 46.8%. Also, in test [2] (Homo sapiens, Platelet), the IC50 was found to be 300 nM.

Regarding `CC1(C)[C@H]2C[C@H](NC(=O)CCCc3ccccc3)[C@@H](C/C=C\CCCC(=O)O)[C@@H]1C2` [3(c)], the inhibition in vivo at 0.1 mg/kg in test [1] turned out to be 78.1%. Besides, in test [2] (Homo sapiens, Platelet), the IC50 was 430 nM.

On to `CC(C)CCC(=O)N[C@H]1C[C@H]2C[C@@H]([C@@H]1C/C=C\CCCC(=O)O)C2(C)C` [1(hh)], for which the inhibition in vivo at 0.1 mg/kg in test [1] was found to be 42%. Besides, in test [2] (Homo sapiens, Platelet), the IC50 was found to be 300 nM.

As for `CC1(C)[C@H]2C[C@H](NC(=O)C(Cl)C3CCCC3)[C@@H](C/C=C\CCCC(=O)O)[C@@H]1C2` (some centres unmarked) [2(h)], in test [1], the inhibition in vivo at 0.1 mg/kg came out at 57.6%. The IC50 in test [2] (Homo sapiens, Platelet) is 450 nM.

Take `CC1(C)[C@H]2C[C@H](NC(=O)CCCc3cccc(Cl)c3)[C@@H](C/C=C\CCCC(=O)O)[C@@H]1C2` [1(r)]: the inhibition in vivo at 0.1 mg/kg in test [1] was determined as 58.6%. Besides, the IC50 in test [2] (Homo sapiens, Platelet) stood at 670 nM.

With `CCCCC(=O)N[C@H]1C[C@H]2C[C@@H]([C@@H]1C/C=C\CCCC(=O)O)C2(C)C` [2(j)], the inhibition in vivo at 0.1 mg/kg in test [1] is 27.3%. The IC50 in test [2] (Homo sapiens, Platelet) was found to be 560 nM.

`CC(C)C(O)C(=O)N[C@H]1C[C@H]2C[C@@H]([C@@H]1C/C=C\CCCC(=O)O)C2(C)C` (single isomer, unassigned) [1(kk)]: the “Inhibitory ratios on contraction of artery” value in test [1] was 18.5%. The IC50 in test [2] worked out at 260 nM.

As for `CC(CC(=O)N[C@H]1C[C@H]2C[C@@H]([C@@H]1C/C=C\CCCC(=O)O)C2(C)C)Cc1ccccc1` (some centres unmarked) [1(w)], the inhibition in vivo at 0.1 mg/kg in test [1] stood at 60.5%. Besides, in test [2] (Homo sapiens, Platelet), the IC50 was 190 nM.

As for `CC1(C)[C@H]2C[C@H](NC(=O)C3CCCC3)[C@@H](C/C=C\CCCC(=O)O)[C@@H]1C2` [1(o)], the inhibition in vivo at 0.1 mg/kg in test [1] turned out to be 34.2%. Also, in test [2] (Homo sapiens, Platelet), the IC50 was determined as 560 nM.

`CC1(C)[C@H]2C[C@H](NC(=O)CCCCc3ccccc3)[C@@H](C/C=C\CCCC(=O)O)[C@@H]1C2` [3(g)]: in test [1], the inhibition in vivo at 0.1 mg/kg is 60.5%. The IC50 in test [2] (Homo sapiens, Platelet) was 630 nM.

Turning to `CC1(C)[C@H]2C[C@H](NC(=O)CC3CCCC3)[C@@H](C/C=C\CCCC(=O)O)[C@@H]1C2` [2(g)], the inhibition in vivo at 0.1 mg/kg in test [1] turned out to be 39%. In addition, the IC50 in test [2] (Homo sapiens, Platelet) is 420 nM.

Consider `CC(C)CC(=O)N[C@H]1C[C@H]2C[C@@H]([C@@H]1C/C=C\CCCC(=O)O)C2(C)C` [1(ee)], for which the inhibition in vivo at 0.1 mg/kg in test [1] turned out to be 39%. Moreover, the IC50 in test [2] (Homo sapiens, Platelet) came to 380 nM.
